The text below walks through data of patent US20140107104A1, “COMBINATION MEDICINE FOR TREATMENT OF DEPRESSION” (priority 2011, published 2014).

Assay [1] deals with dentate gyrus. In words: Microarray analysis of genes expressed in the dentate gyrus. It is filed as in vivo, mice. Particulars: for expression of depression-related gene group: SKF81297 3 mg/(kg day) i.p. days 10-14; for mRNA expression level Alox8: control C 2.02; for mRNA expression level Drd4: control C 29.28; for mRNA expression level Prir (second line): control C 36.03; for mRNA expression level Drd1a: control C 46.26; for mRNA expression level Prir (first line): control C 48.03; for mRNA expression level S100a4: control C 337.31; for mRNA expression level Anxa2: control C 483.27; for mRNA expression level Rgs4 (second line): control C 687.50; for mRNA expression level Htr4: control C 723.76; for mRNA expression level Furin: control C 742.58; for mRNA expression level Gfap (third line): control C 1308.81; for mRNA expression level Bdnf: control C 1312.91; for mRNA expression level Rgs4 (first line): control C 2347.43; for mRNA expression level Gfap (second line): control C 3008.11. The procedure: Then, microarray analysis of genes expressed in the dentate gyrus of these mice was performed.
The microarray analysis was performed as follows. Total RNA was isolated from the hippocampus of each mouse by TRIzol method (Invitrogen, Carlsbad, Calif.) and then purified using an RNeasy column (Qiagen, Valencia, Calif.). Double strand cDNA was synthesized from the total RNA, and in vitro transcription reaction was performed using biotin-labeled RNA prepared from the cDNA. The labeled RNA was hybridized with Mouse Genome 430 2.0 Array (Affymetrix, Santa Clara, Calif.) comprising specific probe sets, and washing was performed according to the manufacturer's recommendations. The hybridized probe array was stained with streptoavidin conjugate phycoerythrin, and each GeneChip was scanned using Affymetrix GeneChip scanner 3000 (GCS3000). GeneChip analysis was performed using Microarray Analysis Suite version 5.0.

The test system of assay [2] is dopamine D1 receptor. Nature of the assay: Western blotting of dopamine D1 receptor protein in hippocampal dentate gyrus. The assay is classed as in vivo, mice. As to conditions: fluoxetine pellet 14 days. The source says:
The samples isolated from the hippocampal dentate gyrus of mice treated with a fluoxetine pellet or a control pellet were electrophoresed using acrylamide gel, and separated proteins were electrically transferred to a nitrocellulose membrane. The D1 receptor protein transferred to the membrane was immunologically detected using a D1 receptor antibody. In the immunological detection, Odyssey near-infrared fluorescent imaging system (LI-COR Biosciences, Lincoln, Nebr.) was used.

The test system of assay [3] is dopamine D1 receptor-GFP. In words: Immunohistochemical analysis of dentate gyrus of dopamine D1 receptor-GFP mice. It is filed as in vivo. As to conditions: fluoxetine pellet 14 days vs placebo pellet. The procedure:
Each mouse was anesthetized with sodium pentobarbital and perfused with 4% paraformaldehyde (PFA) in 0.1 M phosphate buffered saline (PBS). The brain was removed and subjected to immersion fixation in the same fixing fluid at 4° C. for another 2 hours and […] frontal-plane sections were prepared using a cryostat (Leica). The sections were washed with tris buffered saline (pH 7.4) containing Tween 20. For immunostaining, frozen sections were incubated with the following primary antibody: rabbit anti-calbindin D28K polyclonal antibody (1:3000 dilution; SWANT) at 4° C. for 18 hours. The anti-calbindin D28K polyclonal antibody is a maturation marker for granule cells. For detection of antigen localization, the sections were incubated with Alexa Fluor (594)-conjugate goat anti-rabbit IgG (1:400 dilution; Invitrogen) at 4° C. for 2 hours. Further, for nuclear staining, the sections were stained with DAPI. Fluorescent signals were each analyzed using a confocal laser scanning microscope (LSM5 Pascal, Zeiss).

For assay [4], the system named is hippocampal dentate gyrus. Nature of the assay: RT-PCR analysis of mRNA expression in hippocampal dentate gyrus after antidepressant pellet. The assay is classed as in vivo, mice. Particulars: subcutaneously implanted pellet, 14 days, compared to placebo pellet. The method, then:
The method of subcutaneously implanting each pellet was as follows: a small incision about 5 mm was made in the neck skin of each mouse, a pellet was inserted through the incision to a depth of about 2 cm with tweezers for indwelling, and the skin was sutured.
Total RNA was isolated from the hippocampal dentate gyrus of the mice treated with the fluoxetine pellet or the control pellet. First strand cDNA was prepared from 1 ug of DNaseI-treated total RNA using a reverse transcriptase QuantiTect (registered trademark, Qiagen, Valencia, Calif.). Gene expression was quantified using SYBR green (2×SYBR Green PCR Master Mix; Qiagen, Valencia, Calif.) according to the manufacturer's directions. Quantitative RT-PCR was performed using LightCycler (registered trademark) 480II real-time PCR detection system (Roche, Mannheim, Germany) in the following conditions (95° C.: 5 minutes; and then 40 cycles of 95° C.: 10 seconds, 60° C.: 30 seconds, and 65° C.: 1 minute). Beta-actin was amplified in all the samples for standardization of expression data. Whether or not the DNA region of each targeted gene was amplified was confirmed by melting curve analysis after RT-PCR (95° C.: 1 minute, 55° C.: 30 seconds, 95° C.: 30 seconds). The Ct value used was the average of 2 RT-PCR results.
Experiments were conducted in the same manner as in “1.

In assay [5] the test system is dopamine D1 receptor signaling. In words: Dopamine D1 receptor signaling in slices of the hippocampal dentate gyrus (phosphorylation of DARPP-32 and ERK). The assay is classed as cell-based, mice. The procedure: Harvested mouse brain was kept cool in ice-cooled and oxygenated Krebs-HCO3^− buffer, and using vibratome VT1000S (Leica Microsystems, Nussloch, Germany), 350-micrometer-thick continuous coronal slices were prepared. From the coronal slices, slices of the hippocampal dentate gyrus were cut out and used for experiments. Each slice of the hippocampal dentate gyrus was preincubated in 2 mL of Krebs-HCO3^− buffer for 60 minutes and treated with a dopamine D1 receptor agonist, namely SKF81297, and dopamine D1 receptor signaling was analyzed. As an indicator of dopamine D1 receptor signaling, phosphorylation of DARPP-32 (Thr34, PKA site) and of ERK was analyzed. The phosphorylation was analyzed by western blotting with a phosphorylation state-specific antibody.

The mark [6] stands for this setting: fluoxetine pellet 15 mg/(kg day)x14 days.

For `Br.Oc1cc2c(c(Cl)c1O)CCNC[C@@H]2c1ccccc1` [SKF81297, R-(+)-6-chloro-7,8-dihydroxy-1-phenyl-2,3,4,5-tetrahydro-1H-3-benzazepine hydrobromide], the “expression of depression-related gene group” value in assay [1] (setting [6]) is recorded as “neither the SKF81297 sole administration nor the fluoxetine sole administration affected the expression of genes”. Moreover, in assay [1] (fluoxetine pellet 15 mg/(kg day)x14 days, SKF81297 3 mg/(kg day) i.p.x5 days, control C 461.56), the “mRNA expression level S100a10” value was found to be 469.21. Besides, in assay [1] (same regimen), the “mRNA expression level Alox8” value was 2.12, the “mRNA expression level Drd4” value is listed as 30.92, the “mRNA expression level Prir (second line)” value is 160.90 and the “mRNA expression level Drd1a” value came out at 43.87. Further, in assay [1] (same regimen), the “mRNA expression level Prir (first line)” value stood at 61.94, the “mRNA expression level S100a4” value came out at 389.62, the “mRNA expression level Anxa2” value stood at 684.27 and the “mRNA expression level Rgs4 (second line)” value is given as 1053.99. Also, in assay [1] (same regimen), the “mRNA expression level Htr4” value came to 852.76, the “mRNA expression level Furin” value is given as 837.03, the “mRNA expression level Gfap (third line)” value is 1962.44 and the “mRNA expression level Bdnf” value worked out at 1516.05. In assay [1] (same regimen), the “mRNA expression level Rgs4 (first line)” value is 2742.21 and the “mRNA expression level Gfap (second line)” value was found to be 4062.15. For the same compound, the “mRNA expression level Gfap (first line)” value in assay [1] (same regimen, control C […]) is given as 140.79.
Consider `CNCCC(Oc1ccc(C(F)(F)F)cc1)c1ccccc1` (stereo not shown) [fluoxetine], for which, in assay [2], the “protein expression of dopamine D1 receptor as compared to placebo pellet” value stood at 4 times. Further, in assay [3], the “expression of calbindin in granule cells” value was “lowered” and the “expression of dopamine D1 receptor-GFP in granule cells” value is “significantly increased expression”. In addition, in assay [4], the “mRNA expression of calbindin” value is listed as “less mRNA expression”, the “mRNA expression of desmoplakin” value was “less mRNA expression”, the “mRNA expression of dopamine D1 receptor” value is given as “increase in the mRNA expression” and the “mRNA expression of interleukin-1 receptor” value is recorded as “less mRNA expression”. The “mRNA expression of tryptophan 2,3-dioxygenase” value in assay [4] is listed as “less mRNA expression”. Moreover, the “dopamine D1 receptor signaling” value in assay [5] (fluoxetine-induced dematured dentate gyrus slices) was “doubled”. The “phosphorylation of ERK induced by SKF81297” value in assay [5] (slices from mice with fluoxetine pellet 14 days vs placebo pellet) is “increased”. Further, in assay [5] (slices from mice with fluoxetine pellet 14 days vs placebo pellet, SKF81297 1 uM or 10 uM), the “phosphorylation of DARPP-32 (Thr34, PKA site) induced by SKF81297” value is listed as “increased”. Moreover, the “expression of depression-related gene group” value in assay [1] (setting [6]) was “neither the SKF81297 sole administration nor the fluoxetine sole administration affected the expression of genes”. In addition, in assay [1] (same regimen), the “mRNA expression level Alox8” value is 2.11, the “mRNA expression level Drd4” value was 35.57, the “mRNA expression level Prir (second line)” value came to 84.69 and the “mRNA expression level Drd1a” value was 114.21. In assay [1] (same regimen), the “mRNA expression level Prir (first line)” value was 48.69, the “mRNA expression level S100a4” value is on record as 353.74, the “mRNA expression level Anxa2” value is 568.07 and the “mRNA expression level Rgs4 (second line)” value came to 1215.07. For the same compound, in assay [1] (same regimen), the “mRNA expression level Htr4” value amounted to 903.85, the “mRNA expression level Furin” value was 799.17, the “mRNA expression level Gfap (third line)” value turned out to be 1757.42 and the “mRNA expression level Bdnf” value was found to be 1495.90. Also, in assay [1] (same regimen), the “mRNA expression level Rgs4 (first line)” value stood at 3659.58 and the “mRNA expression level Gfap (second line)” value is given as 3185.26.
As for `CN(C)CCCN1c2ccccc2CCc2ccccc21` [imipramine], in assay [4], the “mRNA expression of BDNF” value is listed as “increased”, the “mRNA expression of calbindin” value is reported as “less mRNA expression”, the “mRNA expression of desmoplakin” value is “less mRNA expression” and the “mRNA expression of dopamine D1 receptor” value is “increase in the mRNA expression”. In addition, in assay [4], the “mRNA expression of interleukin-1 receptor” value is recorded as “less mRNA expression” and the “mRNA expression of tryptophan 2,3-dioxygenase” value is “less mRNA expression”.
